Measurements published in publication PMC12599248, “Selectivity profiles and substrate recognition of Rab-phosphorylating kinases” (Biochemical Journal, 2025).

Legend:
Rab43 = target: T1, Rab43 (Homo sapiens, UniProt Q86YS6); assay: dynamic scanning fluorimetry (SYPRO Orange); type: binding; details: 1 mM nucleotide, 4 uM protein, 2.5 mM MgCl2, pH 7.4
T1 construct: near full-length without C-terminal prenylation region; pET-28a, His6 tag cut by TEV; E. coli BL21(DE3)
T1 sequence (Q86YS6 1-185 limits assumed): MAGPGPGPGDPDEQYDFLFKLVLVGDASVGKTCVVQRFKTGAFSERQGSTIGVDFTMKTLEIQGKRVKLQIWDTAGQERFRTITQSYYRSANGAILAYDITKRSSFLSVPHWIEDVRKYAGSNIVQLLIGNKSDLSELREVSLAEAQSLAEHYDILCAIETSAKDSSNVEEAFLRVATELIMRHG

Rab1A = target: T2, Rab1A (Homo sapiens, UniProt P62820); assay: dynamic scanning fluorimetry (SYPRO Orange); type: binding; details: 1 mM nucleotide, 4 uM protein, 2.5 mM MgCl2, pH 7.4
T2 construct: near full-length without C-terminal prenylation region; pET-28a, His6 tag cut by TEV; E. coli BL21(DE3)

Rab8A = target: T3, Rab8A (Homo sapiens, UniProt P61006); assay: dynamic scanning fluorimetry (SYPRO Orange); type: binding; details: 1 mM nucleotide, 4 uM protein, 2.5 mM MgCl2, pH 7.4; shift relative to apo
T3 construct: near full-length without C-terminal prenylation region; pET-28a, His6 tag cut by TEV; E. coli BL21(DE3)
T3 sequence (P61006 1-203 limits assumed): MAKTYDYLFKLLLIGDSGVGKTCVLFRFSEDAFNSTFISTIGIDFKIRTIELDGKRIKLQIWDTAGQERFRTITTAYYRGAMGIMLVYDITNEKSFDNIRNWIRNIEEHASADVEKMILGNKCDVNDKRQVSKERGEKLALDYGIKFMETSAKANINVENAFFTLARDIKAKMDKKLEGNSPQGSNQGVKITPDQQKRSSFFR

Rab3A = target: T4, Rab3A (Homo sapiens, UniProt P20336); assay: dynamic scanning fluorimetry (SYPRO Orange); type: binding; details: 1 mM nucleotide, 4 uM protein, 2.5 mM MgCl2, pH 7.4
T4 construct: near full-length without C-terminal prenylation region; pET-28a, His6 tag cut by TEV; E. coli BL21(DE3)
T4 sequence (P20336 1-200 limits assumed): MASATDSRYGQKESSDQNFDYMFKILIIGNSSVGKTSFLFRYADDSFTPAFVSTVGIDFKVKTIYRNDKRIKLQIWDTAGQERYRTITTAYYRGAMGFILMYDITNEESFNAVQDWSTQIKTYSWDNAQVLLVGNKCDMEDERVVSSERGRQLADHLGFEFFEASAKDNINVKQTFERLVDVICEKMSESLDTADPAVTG

Rab12 = target: T5, Rab12 (Homo sapiens, UniProt Q6IQ22); assay: dynamic scanning fluorimetry (SYPRO Orange); type: binding; details: 1 mM nucleotide, 4 uM protein, 2.5 mM MgCl2, pH 7.4
T5 construct: near full-length without C-terminal prenylation region; pET-28a, His6 tag cut by TEV; E. coli BL21(DE3)
T5 sequence (Q6IQ22 97-318 limits assumed): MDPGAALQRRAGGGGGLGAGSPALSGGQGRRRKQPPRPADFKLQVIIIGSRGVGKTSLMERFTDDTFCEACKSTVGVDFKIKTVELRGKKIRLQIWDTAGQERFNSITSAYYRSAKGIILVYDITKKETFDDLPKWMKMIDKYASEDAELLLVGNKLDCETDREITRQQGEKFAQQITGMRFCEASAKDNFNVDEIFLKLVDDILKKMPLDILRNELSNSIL

Rab9A = target: T6, Rab9A (Homo sapiens, UniProt P51151); assay: dynamic scanning fluorimetry (SYPRO Orange); type: binding; details: 1 mM nucleotide, 4 uM protein, 2.5 mM MgCl2, pH 7.4
T6 construct: near full-length without C-terminal prenylation region; pET-28a, His6 tag cut by TEV; E. coli BL21(DE3)
T6 sequence (P51151 1-180 limits assumed): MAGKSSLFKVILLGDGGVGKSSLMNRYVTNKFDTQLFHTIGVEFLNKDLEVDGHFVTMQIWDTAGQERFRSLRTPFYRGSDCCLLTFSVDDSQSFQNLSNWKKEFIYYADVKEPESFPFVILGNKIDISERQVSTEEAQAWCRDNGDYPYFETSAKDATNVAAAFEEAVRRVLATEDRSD

Rab8B = target: T7, Rab8B (Homo sapiens, UniProt Q92930); assay: dynamic scanning fluorimetry (SYPRO Orange); type: binding; details: 1 mM nucleotide, 4 uM protein, 2.5 mM MgCl2, pH 7.4
T7 construct: near full-length without C-terminal prenylation region; pET-28a, His6 tag cut by TEV; E. coli BL21(DE3)
T7 sequence (Q92930 1-203 limits assumed): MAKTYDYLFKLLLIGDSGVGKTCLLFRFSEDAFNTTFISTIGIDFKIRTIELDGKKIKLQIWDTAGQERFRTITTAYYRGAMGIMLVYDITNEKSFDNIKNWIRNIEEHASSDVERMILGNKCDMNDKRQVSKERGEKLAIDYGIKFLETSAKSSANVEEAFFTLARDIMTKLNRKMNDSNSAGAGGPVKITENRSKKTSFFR

Rab10 = target: T8, Rab10 (Homo sapiens, UniProt P61026); assay: dynamic scanning fluorimetry (SYPRO Orange); type: binding; details: 1 mM nucleotide, 4 uM protein, 2.5 mM MgCl2, pH 7.4
T8 construct: near full-length without C-terminal prenylation region; pET-28a, His6 tag cut by TEV; E. coli BL21(DE3)
T8 sequence (P61026 1-181 limits assumed): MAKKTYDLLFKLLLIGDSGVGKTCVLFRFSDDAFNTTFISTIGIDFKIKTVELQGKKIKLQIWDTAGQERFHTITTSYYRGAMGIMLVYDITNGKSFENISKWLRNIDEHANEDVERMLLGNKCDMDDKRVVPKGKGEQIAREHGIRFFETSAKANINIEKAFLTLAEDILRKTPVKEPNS

Rab29 = target: T9, Rab29 (Homo sapiens, UniProt O14966); assay: dynamic scanning fluorimetry (SYPRO Orange); type: binding; details: 1 mM nucleotide, 4 uM protein, 2.5 mM MgCl2, pH 7.4
T9 construct: near full-length without C-terminal prenylation region; pET-28a, His6 tag cut by TEV; E. coli BL21(DE3)
T9 sequence (O14966 1-195 limits assumed): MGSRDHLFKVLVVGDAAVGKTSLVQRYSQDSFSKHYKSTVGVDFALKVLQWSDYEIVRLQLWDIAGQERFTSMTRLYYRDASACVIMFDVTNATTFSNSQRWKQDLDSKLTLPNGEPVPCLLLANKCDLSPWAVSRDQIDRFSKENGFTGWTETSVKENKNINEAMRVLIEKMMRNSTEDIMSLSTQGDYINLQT

Rab2A = target: T10, Rab2A (Homo sapiens, UniProt P61019); assay: dynamic scanning fluorimetry (SYPRO Orange); type: binding; details: 1 mM nucleotide, 4 uM protein, 2.5 mM MgCl2, pH 7.4
T10 construct: near full-length without C-terminal prenylation region; pET-28a, His6 tag cut by TEV; E. coli BL21(DE3)

Rab15 = target: T11, Rab15 (Homo sapiens, UniProt P59190); assay: dynamic scanning fluorimetry (SYPRO Orange); type: binding; details: 1 mM nucleotide, 4 uM protein, 2.5 mM MgCl2, pH 7.4
T11 construct: near full-length without C-terminal prenylation region; pET-28a, His6 tag cut by TEV; E. coli BL21(DE3)
T11 sequence (P59190 1-208 limits assumed): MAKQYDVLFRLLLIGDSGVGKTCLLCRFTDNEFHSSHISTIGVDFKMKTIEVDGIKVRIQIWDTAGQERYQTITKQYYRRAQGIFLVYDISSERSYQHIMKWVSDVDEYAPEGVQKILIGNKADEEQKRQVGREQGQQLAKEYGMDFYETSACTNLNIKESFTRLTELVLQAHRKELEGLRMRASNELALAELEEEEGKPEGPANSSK

Rab13 = target: T12, Rab13 (Homo sapiens, UniProt P51153); assay: dynamic scanning fluorimetry (SYPRO Orange); type: binding; details: 1 mM nucleotide, 4 uM protein, 2.5 mM MgCl2, pH 7.4
T12 construct: near full-length without C-terminal prenylation region; pET-28a, His6 tag cut by TEV; E. coli BL21(DE3)
T12 sequence (P51153 1-180 limits assumed): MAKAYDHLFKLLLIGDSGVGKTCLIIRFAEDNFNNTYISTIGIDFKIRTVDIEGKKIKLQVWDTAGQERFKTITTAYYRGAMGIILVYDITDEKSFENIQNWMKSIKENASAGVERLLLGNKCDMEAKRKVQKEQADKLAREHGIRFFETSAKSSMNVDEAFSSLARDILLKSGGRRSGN

Rab7A = target: T13, Rab7A (Homo sapiens, UniProt P51149); assay: dynamic scanning fluorimetry (SYPRO Orange); type: binding; details: 1 mM nucleotide, 4 uM protein, 2.5 mM MgCl2, pH 7.4
T13 construct: near full-length without C-terminal prenylation region; pET-28a, His6 tag cut by TEV; E. coli BL21(DE3)

[1] = target: LRRK2 (Leucine-rich repeat kinase 2) (UniProt Q5S007)
Sequence of LRRK2 (Leucine-rich repeat kinase 2) (Q5S007 whole entry): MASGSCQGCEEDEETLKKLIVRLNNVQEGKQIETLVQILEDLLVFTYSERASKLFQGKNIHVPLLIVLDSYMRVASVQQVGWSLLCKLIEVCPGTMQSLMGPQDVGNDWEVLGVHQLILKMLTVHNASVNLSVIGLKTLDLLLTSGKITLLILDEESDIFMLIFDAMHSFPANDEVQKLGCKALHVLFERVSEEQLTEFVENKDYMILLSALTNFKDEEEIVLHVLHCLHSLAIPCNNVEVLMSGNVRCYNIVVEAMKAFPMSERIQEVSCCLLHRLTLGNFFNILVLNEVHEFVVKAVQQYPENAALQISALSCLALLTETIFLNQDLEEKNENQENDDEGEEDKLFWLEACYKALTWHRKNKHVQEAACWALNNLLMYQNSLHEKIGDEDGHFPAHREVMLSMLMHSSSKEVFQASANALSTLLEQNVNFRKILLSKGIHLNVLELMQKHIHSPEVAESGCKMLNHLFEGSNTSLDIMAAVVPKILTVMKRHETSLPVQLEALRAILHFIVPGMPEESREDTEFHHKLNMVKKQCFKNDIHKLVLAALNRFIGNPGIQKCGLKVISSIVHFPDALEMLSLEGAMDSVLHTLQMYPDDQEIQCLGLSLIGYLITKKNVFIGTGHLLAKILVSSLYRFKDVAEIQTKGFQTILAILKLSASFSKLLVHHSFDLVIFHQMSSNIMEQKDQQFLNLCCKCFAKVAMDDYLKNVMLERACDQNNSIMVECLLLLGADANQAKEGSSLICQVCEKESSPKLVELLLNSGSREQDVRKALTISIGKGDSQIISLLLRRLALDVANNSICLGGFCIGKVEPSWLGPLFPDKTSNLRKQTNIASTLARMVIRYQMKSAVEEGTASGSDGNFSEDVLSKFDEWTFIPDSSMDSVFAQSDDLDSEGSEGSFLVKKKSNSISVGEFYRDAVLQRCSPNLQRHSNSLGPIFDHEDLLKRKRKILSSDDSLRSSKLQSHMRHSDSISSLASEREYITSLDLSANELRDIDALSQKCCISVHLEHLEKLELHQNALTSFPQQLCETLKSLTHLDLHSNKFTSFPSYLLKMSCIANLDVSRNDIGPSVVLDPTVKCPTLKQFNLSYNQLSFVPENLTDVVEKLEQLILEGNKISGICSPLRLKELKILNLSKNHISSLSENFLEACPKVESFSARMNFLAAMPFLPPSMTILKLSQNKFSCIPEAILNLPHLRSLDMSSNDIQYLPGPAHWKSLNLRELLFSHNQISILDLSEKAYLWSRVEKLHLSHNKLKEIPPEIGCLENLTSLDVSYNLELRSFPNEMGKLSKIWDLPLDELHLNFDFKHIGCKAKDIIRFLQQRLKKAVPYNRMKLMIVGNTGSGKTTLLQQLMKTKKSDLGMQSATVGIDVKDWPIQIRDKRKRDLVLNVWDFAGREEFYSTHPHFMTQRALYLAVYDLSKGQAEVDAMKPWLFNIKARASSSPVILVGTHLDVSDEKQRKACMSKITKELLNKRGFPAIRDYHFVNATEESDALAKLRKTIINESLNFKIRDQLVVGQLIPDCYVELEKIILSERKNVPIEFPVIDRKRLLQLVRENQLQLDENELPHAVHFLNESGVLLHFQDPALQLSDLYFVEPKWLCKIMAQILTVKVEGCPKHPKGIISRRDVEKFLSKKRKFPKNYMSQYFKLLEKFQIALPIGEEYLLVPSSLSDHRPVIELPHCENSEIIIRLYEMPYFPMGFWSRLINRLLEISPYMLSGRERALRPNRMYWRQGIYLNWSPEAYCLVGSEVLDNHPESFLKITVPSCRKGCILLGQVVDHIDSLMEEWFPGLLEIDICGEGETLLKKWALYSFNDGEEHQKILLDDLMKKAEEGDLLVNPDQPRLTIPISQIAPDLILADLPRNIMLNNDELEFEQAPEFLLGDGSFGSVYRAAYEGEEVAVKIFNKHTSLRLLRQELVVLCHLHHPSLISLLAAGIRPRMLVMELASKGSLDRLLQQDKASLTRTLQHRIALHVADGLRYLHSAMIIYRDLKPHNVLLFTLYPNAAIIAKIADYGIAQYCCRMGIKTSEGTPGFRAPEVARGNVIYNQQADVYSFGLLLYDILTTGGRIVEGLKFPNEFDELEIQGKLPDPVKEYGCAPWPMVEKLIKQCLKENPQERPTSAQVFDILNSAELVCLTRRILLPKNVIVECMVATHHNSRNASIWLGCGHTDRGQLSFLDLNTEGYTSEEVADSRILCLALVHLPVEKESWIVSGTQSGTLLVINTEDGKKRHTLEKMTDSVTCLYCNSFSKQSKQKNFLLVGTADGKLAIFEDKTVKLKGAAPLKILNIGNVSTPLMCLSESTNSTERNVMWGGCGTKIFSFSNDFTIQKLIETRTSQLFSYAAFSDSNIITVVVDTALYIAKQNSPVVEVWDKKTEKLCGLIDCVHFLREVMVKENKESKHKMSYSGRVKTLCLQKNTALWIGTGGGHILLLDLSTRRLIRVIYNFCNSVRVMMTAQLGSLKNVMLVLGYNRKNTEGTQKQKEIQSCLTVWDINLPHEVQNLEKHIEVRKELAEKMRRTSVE

T13 sequence (P51149 1-185 limits assumed): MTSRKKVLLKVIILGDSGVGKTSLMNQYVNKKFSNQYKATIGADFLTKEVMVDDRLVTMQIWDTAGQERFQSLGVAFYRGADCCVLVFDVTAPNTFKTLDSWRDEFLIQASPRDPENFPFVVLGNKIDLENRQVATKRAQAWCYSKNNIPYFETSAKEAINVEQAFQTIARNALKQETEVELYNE
T10 sequence (P61019 1-210 limits assumed): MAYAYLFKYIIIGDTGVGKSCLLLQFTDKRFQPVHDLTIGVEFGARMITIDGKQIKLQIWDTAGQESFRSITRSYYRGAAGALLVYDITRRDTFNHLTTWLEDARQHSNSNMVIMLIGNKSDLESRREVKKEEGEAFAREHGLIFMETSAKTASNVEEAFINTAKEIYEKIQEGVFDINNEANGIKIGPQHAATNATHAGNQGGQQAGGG
T2 sequence (P62820 1-203 limits assumed): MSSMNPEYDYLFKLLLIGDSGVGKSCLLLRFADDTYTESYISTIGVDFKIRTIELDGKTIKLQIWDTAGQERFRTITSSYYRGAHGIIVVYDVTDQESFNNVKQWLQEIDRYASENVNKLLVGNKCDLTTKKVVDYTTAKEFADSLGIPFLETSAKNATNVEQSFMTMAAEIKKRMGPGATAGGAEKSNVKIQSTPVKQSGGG

dTm (Rab8A) | Compound | Tm (Rab9A) | Tm (Rab10) | Tm (Rab13) | Tm (Rab7A) | other results
15 K | Nc1nc2c(ncn2[C@@H]2O[C@H](COP(=O)(O)OP(=O)(O)O)[C@@H](O)[C@H]2O)c(=O)[nH]1 [GDP] | for several Rabs including Rab9A and Rab13, the Rab:GDP and Rab:GTP complexes displayed equal stability | All Rabs from the panel bound to and were stabilized by guanine nucleotides. | for several Rabs including Rab9A and Rab13, the Rab:GDP and Rab:GTP complexes displayed equal stability | All Rabs from the panel bound to and were stabilized by guanine nucleotides. | Tm (Rab43): All Rabs from the panel bound to and were stabilized by guanine nucleotides.; Tm (Rab1A): All Rabs from the panel bound to and were stabilized by guanine nucleotides.; Tm (Rab3A): All Rabs from the panel bound to and were stabilized by guanine nucleotides.; Tm (Rab12): All Rabs from the panel bound to and were stabilized by guanine nucleotides.; Tm (Rab8B): All Rabs from the panel bound to and were stabilized by guanine nucleotides.; Tm (Rab29): All Rabs from the panel bound to and were stabilized by guanine nucleotides.; Tm (Rab2A): All Rabs from the panel bound to and were stabilized by guanine nucleotides.; Tm (Rab15): All Rabs from the panel bound to and were stabilized by guanine nucleotides.
 | Rab8A E108R (from UniProt P61006 1-207) (natural protein) |  |  |  |  | T72 phosphograde of the Rab8A:GDP variant after phosphorylation by LRRK2, relative to wildtype Rab8A (ESI-TOF MS kinase activity assay) (fold (increase)) [1]: 18
21 K | Nc1nc2c(ncn2[C@@H]2O[C@H](COP(=O)(O)OP(=O)(O)OP(=O)(O)O)[C@@H](O)[C@H]2O)c(=O)[nH]1 [GTP] | for several Rabs including Rab9A and Rab13, the Rab:GDP and Rab:GTP complexes displayed equal stability | All Rabs from the panel bound to and were stabilized by guanine nucleotides. | for several Rabs including Rab9A and Rab13, the Rab:GDP and Rab:GTP complexes displayed equal stability | All Rabs from the panel bound to and were stabilized by guanine nucleotides. | 
 | Rab8A R104A (from UniProt P61006 1-207) (natural protein) |  |  |  |  | T72 phosphograde of the Rab8A:GDP variant after phosphorylation by LRRK2, relative to wildtype Rab8A (ESI-TOF MS kinase activity assay) (fold (reduced)) [1]: 2
